From US6727264B1 (Synaptic Pharmaceutical Corporation, priority 2001, dated 2004)

target: rat MCH-1 (Rattus norvegicus, UniProt P97639); test: Radioligand binding assay at cloned rat MCH1 receptor ([3H] Compound A); design: host or cells: Peak rapid 293 (Peakr293) cells, transient calcium phosphate transfection, membranes; settings: cloned rat MCH1 receptor, membranes from Peakr293 cells, 0.08 nM [3H] Compound A; read-out: Ki (nM) rMCH1
Sequence (P97639 whole entry): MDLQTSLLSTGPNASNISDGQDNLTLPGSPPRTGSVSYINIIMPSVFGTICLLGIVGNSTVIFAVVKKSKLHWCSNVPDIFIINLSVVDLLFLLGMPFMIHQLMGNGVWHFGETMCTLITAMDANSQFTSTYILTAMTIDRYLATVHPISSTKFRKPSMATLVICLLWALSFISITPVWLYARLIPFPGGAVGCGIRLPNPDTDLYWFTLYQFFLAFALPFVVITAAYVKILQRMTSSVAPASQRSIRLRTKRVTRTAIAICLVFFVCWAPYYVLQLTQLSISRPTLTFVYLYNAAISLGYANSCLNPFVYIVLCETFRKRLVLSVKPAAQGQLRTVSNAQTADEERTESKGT

COc1ccc2[nH]c(-c3ccccc3)c(CCCCN3CCC(c4cccc(NC(=O)C(C)C)c4)CC3)c2c1 [Example 92] and COc1ccc2[nH]cc(CCCN3CCC(c4cccc(NC(=O)C(C)C)c4)CC3)c2c1 [Example 95] are within 1.5-fold of each other in Ki: 8 nM for the first, 5.4 nM for the second.

CC(C)C(=O)Nc1cccc(C2CCN(Cc3cn(-c4ccccc4)c4ccccc34)CC2)c1 [Example 93] and CC(C)C(=O)Nc1cccc(C2CCN(Cc3ccc(N(c4ccccc4)c4ccccc4)cc3)CC2)c1 [Example 114] are within 1.5-fold of each other in Ki: 4.2 nM for the first, 3.6 nM for the second.

Going from CC(C)C(=O)Nc1cccc(C2CCN(CCC/C(=N\Nc3ccccn3)c3ccccc3)CC2)c1 [Example 94] to CC(C)C(=O)Nc1cccc(C2CCN(CCC(=O)c3ccccc3)CC2)c1 [Example 121], the Ki rises from 2.3 nM to 184 nM (80-fold). The first binds more tightly here.

Going from CC(C)C(=O)Nc1cccc(C2CCN(CCCCCCn3ccc4ccccc43)CC2)c1 [Example 96] to CC(C)C(=O)Nc1cccc(C2CCN(CCCCCn3ccc4ccccc43)CC2)c1 [Example 97], the Ki rises from 15.9 nM to 27.3 nM (1.7-fold).

Compared with CCn1c2ccccc2c2cc(CN3CCC(c4ccc(NC(=O)C(C)C)cc4)CC3)ccc21 [Example 98], Cc1cccc(-n2ccc3cc(CN4CCC(c5cccc(NC(=O)C(C)C)c5)CC4)ccc32)c1 [Example 103] is 1.8-fold lower in Ki: 37.9 nM for the first, 21.3 nM for the second.

Compared with COc1ccc(-n2ccc3cc(CN4CCC(c5cccc(NC(=O)C(C)C)c5)CC4)ccc32)cc1 [Example 100], CC(C)C(=O)Nc1cccc(C2CCN(Cc3ccc4c(ccn4-c4ccc(F)cc4)c3)CC2)c1 [Example 101] is 3.5-fold lower in Ki: 27.5 nM for the first, 7.8 nM for the second.

Going from CC(C)C(=O)Nc1cccc(C2CCN(CCCNS(=O)(=O)c3ccc(Cl)c([N+](=O)[O-])c3)CC2)c1 [Example 104] to CC(C)C(=O)Nc1cccc(C2CCN(CCC(=O)c3ccc(Cl)cc3)CC2)c1 [Example 118], the Ki rises from 11.2 nM to 43.6 nM (3.9-fold).

CC(C)C(=O)Nc1cccc(C2CCN(CCCCCN3C(=O)OCC3c3ccc(F)c(F)c3)CC2)c1 (stereo not shown) [Example 105] and CC(C)C(=O)Nc1cccc(C2CCN(CCC(Oc3ccc(F)c(F)c3)c3ccc(Cl)cc3)CC2)c1 (stereo not shown) [Example 125] are within 1.5-fold of each other in Ki: 4.6 nM for the first, 5.4 nM for the second.

Going from CC(C)C(=O)Nc1cccc(C2CCN(CCNC(=O)C(c3ccccc3)c3ccccc3)CC2)c1 [Example 107] to Cc1ccccc1OC(CCN1CCC(c2cccc(NC(=O)C(C)C)c2)CC1)c1ccc(Cl)cc1 (stereo not shown) [Example 126], the Ki rises from 1.7 nM to 13.8 nM (8.1-fold). The first binds more tightly here.

First: Cc1cc(CN2CCC(c3cccc(NC(=O)C(C)C)c3)CC2)c(C)n1-c1cccc(C(F)(F)F)c1 [Example 109]
Second: Cc1ccc(C(=O)CCN2CCC(c3cccc(NC(=O)C(C)C)c3)CC2)cc1 [Example 122]
The Ki of the first is 4.1-fold lower: 20.9 nM for the first, 85.1 nM for the second. The first binds more tightly here.

CC(C)C(=O)Nc1cccc(C2CCN(Cc3ccc(Oc4ccc(Cl)c(Cl)c4)cc3)CC2)c1 [Example 112] and COc1ccc(OC(CCN2CCC(c3cccc(NC(=O)C(C)C)c3)CC2)c2ccc(Cl)cc2)cc1 (stereo not shown) [Example 130] are within 1.5-fold of each other in Ki: 6.1 nM for the first, 6 nM for the second.

Compared with CC(C)C(=O)Nc1cccc(C2CCN(CCC(=O)c3ccc(Br)cc3)CC2)c1 [Example 117], CC(C)C(=O)Nc1cccc(C2CCN(CCC(=O)c3ccc(F)cc3)CC2)c1 [Example 123] is 24-fold higher in Ki: 19 nM for the first, 450 nM for the second.

First: COc1ccc(C(=O)CCN2CCC(c3cccc(NC(=O)C(C)C)c3)CC2)cc1 [Example 119]
Second: COc1ccc(C(O)CCN2CCC(c3cccc(NC(=O)C(C)C)c3)CC2)cc1 (stereo not shown) [Example 128, N-(3-{1-[3-HYDROXY-3-(4- METHOXYPHENYL)PROPYL]-4-PIPERIDINYL}PHENYL)-2-METHYLPROPANAMIDE]
The Ki of the first is 4.3-fold lower: 75.7 nM for the first, 329 nM for the second. The first binds more tightly here.

CC(C)C(=O)Nc1cccc(C2CCN(CCC(=O)c3ccc4c(c3)CCC4)CC2)c1 [Example 120] and CC(C)C(=O)Nc1cccc(C2CCN(CCC(O)c3ccc(Cl)cc3)CC2)c1 (stereo not shown) [Example 124] are within 1.5-fold of each other in Ki: 31.1 nM for the first, 33 nM for the second.

Compared with CC(C)C(=O)Nc1cccc(C2CCN(CCC(O)c3ccc(F)cc3)CC2)c1 (stereo not shown) [Example 127], CC(C)C(=O)Nc1cccc(C2CCN(CCC(O)c3ccc(Br)cc3)CC2)c1 (stereo not shown) [Example 129] is 4.3-fold lower in Ki: 168 nM for the first, 38.8 nM for the second. The second binds more tightly here.

In the case of CC(C)C(=O)Nc1cccc(C2CCN(CCC(Oc3ccc(Cl)cc3)c3ccc(F)cc3)CC2)c1 (stereo not shown) [Example 131], the Ki is reported as 11.9 nM.
